Values quoted from earlier work as cited in EP1568762A1, “Detergent tablet compositions and their manufacture” (UNILEVER N.V., priority 2004, dated 2005).
Like-named read-outs stand apart in the source and are kept apart here.

[1] = other common materials, by contrast, at 20°C

Water Solubility (g/100g) (highly water-soluble materials, grams of solid required to form a saturated solution in 100 grams of water at 20°C)	Compound	Water Solubility (g/100g) [1] [g/100g]
	O=BO[O-].[Na+] [Sodium perborate anhydrous]	3.7
	O=P(O)(O)OP(=O)(O)OP(=O)(O)O [Sodium tripolyphosphate anhydrous]	15
>100	NC(N)=O [Urea]	
